Assay results reported in patent US12539292B2, “BRM targeting compounds and associated methods of use” (Arvinas Operations, Inc., priority 2018, dated 2026).
Read-outs that look alike come from different tables or passages of the source.

Target: T1, BRM (Homo sapiens, UniProt P51531)
T1 construct: In-Cell Western Screen of BRM Degradation in SW1573 Cells; endogenous in cells; host or cells: SW1573
Assay: In-cell Western screen of BRM degradation in SW1573 cells (Dmax and DC50)
Format: cell-based
How it was run: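 Near-infrared imaging on a LI-COR Odyssey (800 and 680 nm channels) quantifies BRM remaining in fixed SW1573 cells. Cells are dosed for 18-20 h at 0.1% final DMSO, and degradation is expressed as Dmax and DC50.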

[1] = BRM degradation, SW1573 cells, read-out: DC50
[2] = BRM degradation, SW1573 cells, tested at the top concentration of between 0.3 and 10 μM, read-out: Dmax (%) (% degraded)
[3] = BRM degradation, SW1573 cells, Table 2D, read-out: **Dmax (%) (% degraded)
[4] = BRM degradation, SW1573 cells, Table 2D, read-out: *DC50
[5] = BRM degradation, SW1573 cells, when tested at the top concentration of between 0.3 and 10 μM, read-out: Dmax (%) (% degraded)

T1 sequence (P51531 whole entry): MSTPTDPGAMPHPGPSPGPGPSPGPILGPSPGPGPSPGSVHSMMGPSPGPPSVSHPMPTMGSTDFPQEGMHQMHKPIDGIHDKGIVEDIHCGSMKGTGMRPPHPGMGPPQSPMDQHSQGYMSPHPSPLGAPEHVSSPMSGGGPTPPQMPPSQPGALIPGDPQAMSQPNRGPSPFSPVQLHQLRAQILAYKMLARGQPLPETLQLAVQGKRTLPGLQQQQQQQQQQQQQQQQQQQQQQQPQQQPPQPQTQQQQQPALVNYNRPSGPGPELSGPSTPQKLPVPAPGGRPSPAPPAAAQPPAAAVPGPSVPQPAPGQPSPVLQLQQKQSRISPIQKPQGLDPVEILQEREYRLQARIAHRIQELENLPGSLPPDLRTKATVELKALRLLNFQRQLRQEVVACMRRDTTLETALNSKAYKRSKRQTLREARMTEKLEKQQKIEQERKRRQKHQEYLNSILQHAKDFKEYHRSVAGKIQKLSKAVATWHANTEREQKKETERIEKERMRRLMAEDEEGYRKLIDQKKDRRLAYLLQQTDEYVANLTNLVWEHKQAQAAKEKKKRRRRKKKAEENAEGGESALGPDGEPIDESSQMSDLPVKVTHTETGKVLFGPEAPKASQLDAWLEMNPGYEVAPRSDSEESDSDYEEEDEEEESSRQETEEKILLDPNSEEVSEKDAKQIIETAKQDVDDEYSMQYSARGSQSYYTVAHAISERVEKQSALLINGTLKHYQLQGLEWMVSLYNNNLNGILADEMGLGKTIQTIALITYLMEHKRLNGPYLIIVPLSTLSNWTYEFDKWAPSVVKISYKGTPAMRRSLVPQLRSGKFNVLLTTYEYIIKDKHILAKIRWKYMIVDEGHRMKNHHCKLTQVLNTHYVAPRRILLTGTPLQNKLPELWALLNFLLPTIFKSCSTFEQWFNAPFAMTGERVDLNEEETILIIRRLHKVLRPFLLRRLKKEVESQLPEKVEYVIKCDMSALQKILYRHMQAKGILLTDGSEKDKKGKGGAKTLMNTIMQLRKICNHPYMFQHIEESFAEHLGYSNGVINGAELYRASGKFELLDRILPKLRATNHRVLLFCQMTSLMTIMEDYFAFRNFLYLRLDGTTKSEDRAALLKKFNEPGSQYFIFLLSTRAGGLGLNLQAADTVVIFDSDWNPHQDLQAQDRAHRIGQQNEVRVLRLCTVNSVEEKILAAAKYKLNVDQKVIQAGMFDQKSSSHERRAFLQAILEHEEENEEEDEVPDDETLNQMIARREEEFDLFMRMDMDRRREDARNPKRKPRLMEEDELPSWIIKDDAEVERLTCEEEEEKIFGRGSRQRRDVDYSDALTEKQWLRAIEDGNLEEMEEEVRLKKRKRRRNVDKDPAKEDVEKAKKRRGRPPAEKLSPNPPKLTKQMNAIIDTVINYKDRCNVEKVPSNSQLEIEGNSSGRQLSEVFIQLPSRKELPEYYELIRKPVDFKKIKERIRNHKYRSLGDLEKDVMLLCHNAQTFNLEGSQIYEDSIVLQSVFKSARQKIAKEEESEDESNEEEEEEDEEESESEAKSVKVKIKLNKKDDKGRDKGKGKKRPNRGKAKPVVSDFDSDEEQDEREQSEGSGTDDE

`CC(=O)NCC#Cc1ncsc1-c1ccc([C@H](C)NC(=O)[C@@H]2C[C@@H](O)CN2C(=O)C(c2cc(OCCN3CCN(CCOc4cc(N5C6CCC5CN(c5cc(-c7ccccc7O)nnc5N)C6)ccn4)CC3)no2)C(C)C)cc1` (stereo partly drawn) [compound 175, (2S,4R)-N-((S)-1-(4-(4-(3-acetamidoprop-1-yn-1-yl)thiazol-5-yl)phenyl)ethyl)-1-(2-(3-(2-(4-(2-((4-(3-(3-amino-6-(2-hydroxyphenyl)pyridazin-4-yl)-3,8-diazabicyclo[3.2.1]octan-8-yl)pyridin-2-yl)oxy)ethyl)piperazin-1-yl)ethoxy)isoxazol-5-yl)-3-methylbutanoyl)-4-hydroxypyrrolidine-2-carboxamide] was tested, and the DC50 [1] was 2.5 to 10 nM and the Dmax [2] was > 75%.
In the case of `Cc1ncsc1-c1ccc([C@H](C)NC(=O)[C@@H]2C[C@@H](O)CN2C(=O)[C@@H](c2cc(OCCC3CCN(C[C@H]4C[C@H](Oc5cc(N6C7CCC6CN(c6cc(-c8ccccc8O)nnc6N)C7)ccn5)C4)CC3)no2)C(C)C)c(F)c1F` [compound 588, (2S,4R)-1-((2R)-2-(3-(2-(1-(((1r,3R)-3-((4-(3-(3-amino-6-(2-hydroxyphenyl)pyridazin-4-yl)-3,8-diazabicyclo[3.2.1]octan-8-yl)pyridin-2-yl)oxy)cyclobutyl)methyl)piperidin-4-yl)ethoxy)isoxazol-5-yl)-3-methylbutanoyl)-N-((S)-1-(2,3-difluoro-4-(4-methylthiazol-5-yl)phenyl)ethyl)-4-hydroxypyrrolidine-2-carboxamide], the Dmax [3] is reported as > 75% and the DC50 [4] is reported as < 2.5 nM.
`Cc1ncsc1-c1ccc([C@H](C)NC(=O)[C@@H]2C[C@@H](O)CN2C(=O)[C@H](c2cc(OCCOc3ccc(C(C)n4cc(-c5cc(-c6ccccc6O)nnc5N)cn4)cc3)no2)C(C)C)cc1` (stereo partly drawn) [compound 156, (2S,4R)-1-((2S)-2-(3-(2-(4-(1-(4-(3-amino-6-(2-hydroxyphenyl)pyridazin-4-yl)-1H-pyrazol-1-yl)ethyl)phenoxy)ethoxy)isoxazol-5-yl)-3-methylbutanoyl)-4-hydroxy-N-((S)-1-(4-(4-methylthiazol-5-yl)phenyl)ethyl)pyrrolidine-2-carboxamide] was tested, and the DC50 [1] was > 30 nM and the Dmax [2] was > 75%.
With `Cc1ncsc1-c1ccc([C@H](C)NC(=O)[C@@H]2C[C@@H](O)CN2C(=O)[C@H](c2cc(OCCN3CCC(O[C@H]4C[C@H](OCCN5CCOC6(CCN(c7cc(-c8ccccc8O)nnc7N)CC6)C5)C4)CC3)no2)C(C)C)cc1` [compound 358, (2S,4R)-1-((S)-2-(3-(2-(4-((1r,3S)-3-(2-(9-(3-amino-6-(2-hydroxyphenyl)pyridazin-4-yl)-1-oxa-4,9-diazaspiro[5.5]undecan-4-yl)ethoxy)cyclobutoxy)piperidin-1-yl)ethoxy)isoxazol-5-yl)-3-methylbutanoyl)-4-hydroxy-N-((S)-1-(4-(4-methylthiazol-5-yl)phenyl)ethyl)pyrrolidine-2-carboxamide] the DC50 (target protein degradation, read-out: BRM DC50) was > 30 nM.
`CC(C)[C@@H](C(=O)N1C[C@H](O)C[C@H]1C(=O)NCc1ccc(C2(F)CC2)cc1)c1cc(OCCN2CCC(O[C@H]3C[C@H](Oc4cc(N5C6CCC5CN(c5cc(-c7ccccc7O)nnc5N)C6)ccn4)C3)CC2)no1` [compound 419, (2S,4R)-1-((2R)-2-(3-(2-(4-((1r,3R)-3-((4-(3-(3-amino-6-(2-hydroxyphenyl)pyridazin-4-yl)-3,8-diazabicyclo[3.2.1]octan-8-yl)pyridin-2-yl)oxy)cyclobutoxy)piperidin-1-yl)ethoxy)isoxazol-5-yl)-3-methylbutanoyl)-N-(4-(1-fluorocyclopropyl)benzyl)-4-hydroxypyrrolidine-2-carboxamide] was tested, and the Dmax (SW1573, % degraded, when tested at the top concentration of between 0.3 and 10 μM, read-out: BRM Dmax (%)) was > 75% and the DC50 (degradation of BRM, read-out: BRM DC50) was 2.5 to 10 nM.
For `Cc1ncsc1-c1ccc([C@H](C)NC(=O)[C@@H]2C[C@@H](O)CN2C(=O)[C@@H](c2cc(N3CCC(CN4CCC(O[C@H]5C[C@H](CN6CCC(C(C)n7cc(-c8cc(-c9ccccc9O)nnc8N)cn7)CC6)C5)CC4)CC3)no2)C(C)C)cc1` (stereo partly drawn) [compound 642, (2S,4R)-1-((2R)-2-(3-(4-((4-((1r,3r)-3-((4-(1-(4-(3-amino-6-(2-hydroxyphenyl)pyridazin-4-yl)-1H-pyrazol-1-yl)ethyl)piperidin-1-yl)methyl)cyclobutoxy)piperidin-1-yl)methyl)piperidin-1-yl)isoxazol-5-yl)-3-methylbutanoyl)-4-hydroxy-N-((S)-1-(4-(4-methylthiazol-5-yl)phenyl)ethyl)pyrrolidine-2-carboxamide], the DC50 [1] was < 2.5 nM and the Dmax (BRM degradation, SW1573 cells, read-out: Dmax (% degraded)) was > 75%.
For `Cc1ncsc1-c1ccc([C@H](C)NC(=O)[C@@H]2C[C@@H](O)CN2C(=O)[C@H](c2cc(N3CCC(CN4CCC(O[C@H]5C[C@H](N6CCOC7(CCN(c8cc(-c9ccccc9O)nnc8N)CC7)C6)C5)CC4)CC3)no2)C(C)C)cc1` [compound 617, (2S,4R)-1-((S)-2-(3-(4-((4-((1r,3r)-3-(9-(3-amino-6-(2-hydroxyphenyl)pyridazin-4-yl)-1-oxa-4,9-diazaspiro[5.5]undecan-4-yl)cyclobutoxy)piperidin-1-yl)methyl)piperidin-1-yl)isoxazol-5-yl)-3-methylbutanoyl)-4-hydroxy-N-((S)-1-(4-(4-methylthiazol-5-yl)phenyl)ethyl)pyrrolidine-2-carboxamide], the DC50 [4] was > 30 nM.
In the case of `Cc1ncsc1-c1ccc([C@H](C)NC(=O)[C@@H]2C[C@@H](O)CN2C(=O)[C@@H](c2cc(OCCOCCOCCCCN3CCC4(CC3)CCN(c3cc(-c5ccccc5O)nnc3N)CC4)no2)C(C)C)cc1` [compound 68, (2S,4R)-1-((R)-2-(3-(2-(2-(4-(9-(3-amino-6-(2-hydroxyphenyl)pyridazin-4-yl)-3,9-diazaspiro[5.5]undecan-3-yl)butoxy)ethoxy)ethoxy)isoxazol-5-yl)-3-methylbutanoyl)-4-hydroxy-N-((S)-1-(4-(4-methylthiazol-5-yl)phenyl)ethyl)pyrrolidine-2-carboxamide], the DC50 [1] is reported as 2.5 to 10 nM and the Dmax [5] is reported as > 75%.
With `Cc1ncsc1-c1cc(F)c([C@H](C)NC(=O)[C@@H]2C[C@@H](O)CN2C(=O)[C@@H](c2cc(OCCN3CCC(O[C@H]4C[C@H](Oc5cc(N6C7CCC6CN(c6cc(-c8ccccc8O)nnc6N)C7)ccn5)C4)CC3)no2)C(C)C)cn1` [compound 539, (2S,4R)-1-((2R)-2-(3-(2-(4-((1r,3R)-3-((4-(3-(3-amino-6-(2-hydroxyphenyl)pyridazin-4-yl)-3,8-diazabicyclo[3.2.1]octan-8-yl)pyridin-2-yl)oxy)cyclobutoxy)piperidin-1-yl)ethoxy)isoxazol-5-yl)-3-methylbutanoyl)-N-((S)-1-(4-fluoro-6-(4-methylthiazol-5-yl)pyridin-3-yl)ethyl)-4-hydroxypyrrolidine-2-carboxamide] the Dmax [3] was > 75% and the DC50 [4] was < 2.5 nM.
With `Cc1ncsc1-c1ccc(CNC(=O)[C@@H]2C[C@@H](O)CN2C(=O)[C@H](c2cc(OCCN3CCN(CCCc4cc(N5C6CCC5CN(c5cc(-c7ccccc7O)nnc5N)C6)ccn4)CC3)no2)C(C)C)cc1` [compound 43, (2S,4R)-1-[(2S)-2-[3-(2-[4-[3-(4-[3-[3-amino-6-(2-hydroxyphenyl)pyridazin-4-yl]-3,8-diazabicyclo[3.2.1]octan-8-yl]pyridin-2-yl)propyl]piperazin-1-yl]ethoxy)-1,2-oxazol-5-yl]-3-methylbutanoyl]-4-hydroxy-N-[[4-(4-methyl-1,3-thiazol-5-yl)phenyl]methyl]pyrrolidine-2-carboxamide] the Dmax [5] was < 50%.
With `Cc1ncsc1-c1ccc([C@H](C)NC(=O)[C@@H]2C[C@@H](O)CN2C(=O)[C@@H](c2cc(N3CCN(CCN4CCC(O[C@H]5C[C@H](Oc6cc(N7C8CCC7CN(c7cc(-c9ccccc9O)nnc7N)C8)ccn6)C5)CC4)CC3)no2)C(C)C)cc1` [compound 144, (2S,4R)-1-((2R)-2-(3-(4-(2-(4-((1r,3r)-3-((4-(3-(3-amino-6-(2-hydroxyphenyl)pyridazin-4-yl)-3,8-diazabicyclo[3.2.1]octan-8-yl)pyridin-2-yl)oxy)cyclobutoxy)piperidin-1-yl)ethyl)piperazin-1-yl)isoxazol-5-yl)-3-methylbutanoyl)-4-hydroxy-N-((S)-1-(4-(4-methylthiazol-5-yl)phenyl)ethyl)pyrrolidine-2-carboxamide] the DC50 [1] was < 2.5 nM and the Dmax [5] was > 75%.
In the case of `Cc1ncsc1-c1ccc([C@H](C)NC(=O)[C@@H]2C[C@@H](O)CN2C(=O)[C@H](c2cc(N3CCC(OC4CCN(CC5CC(CN6CCC([C@@H](C)n7cc(-c8cc(-c9ccccc9O)nnc8N)cn7)CC6)C5)CC4)CC3)no2)C(C)C)cc1` (single isomer, unassigned) [compound 595], the Dmax [3] is reported as > 75% and the DC50 [4] is reported as < 2.5 nM.
In the case of `COc1cc(C(C(=O)N2C[C@H](O)C[C@H]2C(=O)N[C@@H](C)c2ccc(-c3scnc3C)cc2)C(C)CC(=O)N(C)CCOc2cc(N3C4CCC3CN(c3cc(-c5ccccc5O)nnc3N)C4)ccn2)on1` (stereo partly drawn) [compound 289, (2S,4R)-1-(5-((2-((4-(3-(3-amino-6-(2-hydroxyphenyl)pyridazin-4-yl)-3,8-diazabicyclo[3.2.1]octan-8-yl)pyridin-2-yl)oxy)ethyl)(methyl)amino)-2-(3-methoxyisoxazol-5-yl)-3-methyl-5-oxopentanoyl)-4-hydroxy-N-((S)-1-(4-(4-methylthiazol-5-yl)phenyl)ethyl)pyrrolidine-2-carboxamide], the DC50 [1] is reported as > 30 nM.
